Source: US20250092017A1, “2-PIPERIDYL OR 2-PYRAZOLYL SUBSTITUTED PYRIMIDINE COMPOUND SERVING AS EGFR INHIBITOR” (SUZHOU PUHE BIOPHARMA CO., LTD., priority 2022, published 2025)

Tests used:
EGFR (wild-type) = EGFR (wild-type) (Homo sapiens, UniProt P00533); assay: MSA (Mobility Shift Assay) kinase activity, EGFR wild type; assay type: biochemical; conditions: read-out: EGFR wt/ IC50/nM
Protocol: (§1) The MSA (Mobility Shift Assay) method was used to detect the effects of small molecule inhibitors on the kinase activity of EGFR wild type and its mutants (EGFR^wt, EGFR-L858R, EGFR-L858R-T790M-C797S, EGFR-L858R-C797S).
(§2) 10 μL of kinase solution at 2.5 times the final concentration was added to the compound wells and positive control Max wells; 10 μL of 1x kinase buffer was added to the negative control Min wells. The mixture was centrifuged at 1000 rpm for 30 seconds, and the reaction plate was shaken to mix the solution well and then incubated at room temperature for 10 minutes. A mixed solution of ATP and kinase substrate at 5/3 times the final concentration was prepared in 1x kinase buffer. 15 μL of a mixed solution of ATP and substrate at 5/3 times the final concentration was added to initiate the reaction. The 384-well plate was centrifuged at 1000 rpm for 30 seconds, and shaken to mix the solution well and then incubated at room temperature for the corresponding time. 30 μL of stop detection solution was added to stop the kinase reaction, and the mixture was centrifuged at 1000 rpm for 30 seconds, and then to mixed well by shaking. The conversion rate was read using Caliper EZ Reader.
(§3) wherein: Conversion %_sample is the conversion rate reading of the sample; Conversion %_min is the mean of the negative control wells, representing the conversion rate reading of the wells without enzyme activity; Conversion %_max is the mean of the positive control wells, representing the conversion rate reading of the wells without compound inhibition.
(§4) The log (inhibitor) vs. response —Variable slope of the analysis software GraphPad Prism 5 was used to fit the dose-effect curve, where the log value of the concentration was used as the X-axis and the percentage inhibition rate was used as the Y-axis, to obtain the IC50 value of each compound on the enzyme activity.
(§5) The calculation formula is Y=Bottom+(Top-Bottom)/(1+10^((Log IC50−X)*Hill Slope))

EGFR (L858R) = EGFR (L858R) (Homo sapiens, UniProt P00533, L858R); assay: MSA (Mobility Shift Assay) kinase activity, EGFR-L858R; assay type: biochemical
Protocol: as §1, §2, §3, §4, §5

EGFR (L858R/C797S) = EGFR (L858R/C797S) (Homo sapiens, UniProt P00533, C797S/L858R); assay: MSA (Mobility Shift Assay) kinase activity, EGFR-L858R-C797S; assay type: biochemical
Protocol: as §1, §2, §3, §4, §5

EGFR (L858R/T790M/C797S) = EGFR (L858R/T790M/C797S) (Homo sapiens, UniProt P00533, C797S/L858R/T790M); assay: MSA (Mobility Shift Assay) kinase activity, EGFR-L858R-T790M-C797S; assay type: biochemical
Protocol: as §1, §2, §3, §4, §5

Ba/F3-FL-EGFR = biological target: T1, Ba/F3-FL-EGFR (Homo sapiens, UniProt P00533); assay: CellTiter-Glo proliferation, Ba/F3-FL-EGFR; assay type: cell-based; conditions: 72 hours, read-out: Ba/F3-FL-EGFR IC50/nM
T1 construct: FL read as full length
Protocol: (§6) Promega CellTiter-Glo reagent was used to detect the effects of small molecule inhibitors on the proliferation of five Ba/F3 cell lines (Ba/F3-FL-EGFR, Ba/F3-FL-EGFR-L858R, Ba/F3-FL-EGFR-L858R-T790M-C797S, Ba/F3-TEL-EGFR-L858R-C797S and Ba/F3-FL-EGFR-del19-C797S).
(§7) The cell lines were cultured in an incubator at 37° C. and 5% CO2. Cells were passaged regularly and cells in the logarithmic phase were used for plating. 95 μL of cell suspension was added to each well of the cell plate, and culture medium without cells (containing 0.1% DMSO) was added to the Min control wells. Substance addition for compound detection cell plate: 5 μL of 20× compound working solution was added to the cell culture plate as shown in the table below. 50 μL of DMSO-cell culture medium mixture was added to the Max control, with the final DMSO concentration of 0.1%. 5 μL of DMSO-cell culture medium mixture was added to the Max control. The final DMSO concentration was 0.1%.
(§8) The compounds to be tested were added as per the table below
(§9) Cell viability was detected by CellTiter-Glo luminescence assay. Data analysis:
(§10) The cell proliferation inhibition rate (Inhibition Rate) data was processed using the following formula: […]
(§11) wherein: RLUDrug represents the relative luminescence unit of the cells with the addition of drug, RLUMin represents the luminescence unit of the culture medium, and RLUMax represents the relative luminescence unit of the cells with the addition of DMSO.
(§12) The inhibition rates corresponding to different concentrations of compounds were calculated in EXCEL, and then the inhibition rate curve was plotted using GraphPad Prism software and related parameters including the maximum and minimum inhibition rates of cells and IC50 values were calculated.

Ba/F3-FL-EGFR-L858R = Ba/F3-FL-EGFR-L858R (Homo sapiens, UniProt P00533, L858R, cells depend on it); assay: CellTiter-Glo proliferation, Ba/F3-FL-EGFR-L858R; assay type: cell-based; conditions: 72 hours, read-out: Ba/F3-FL-EGFR-L858R IC50/nM
Protocol: as §6, §7, §8, §9, §10, §11, §12

[1] = biological target: T2, Ba/F3-TEL-EGFR-L858R-C797S (Homo sapiens, UniProt P00533, C797S/L858R, cells depend on it); assay: CellTiter-Glo proliferation, Ba/F3-TEL-EGFR-L858R-C797S; assay type: cell-based; conditions: 72 hours, read-out: Ba/F3-TEL-EGFR-L858R-C797S IC50/nM
T2 construct: fused on or other part: N-terminal TEL (ETV6) oligomerising part fused to the EGFR intracellular/kinase part; P41212 (Transcription factor ETV6)
Protocol: as §6, §7, §8, §9, §10, §11, §12

[2] = biological target: Ba/F3-FL-EGFR-L858R-T790M-C797S (Homo sapiens, UniProt P00533, T790M/C797S/L858R, cells depend on it); assay: CellTiter-Glo proliferation, Ba/F3-FL-EGFR-L858R-T790M-C797S; assay type: cell-based; conditions: 72 hours, read-out: Ba/F3-FL-EGFR-L858R-T790M-C797S IC50/nM
Protocol: as §6, §7, §8, §9, §10, §11, §12

[3] = test system: Ba/F3-FL-EGFR-del19-C797S; assay: CellTiter-Glo proliferation, Ba/F3-FL-EGFR-del19-C797S; assay type: cell-based; conditions: 72 h, proliferation, 72 hours, CellTiter-Glo; read-out: Ba/F3-FL-EGFR-del19-C797S IC50/nM
Protocol: as §6, §7, §8, §9, §10, §11, §12

Sequence of Ba/F3-FL-EGFR-L858R (P00533 whole entry L858R): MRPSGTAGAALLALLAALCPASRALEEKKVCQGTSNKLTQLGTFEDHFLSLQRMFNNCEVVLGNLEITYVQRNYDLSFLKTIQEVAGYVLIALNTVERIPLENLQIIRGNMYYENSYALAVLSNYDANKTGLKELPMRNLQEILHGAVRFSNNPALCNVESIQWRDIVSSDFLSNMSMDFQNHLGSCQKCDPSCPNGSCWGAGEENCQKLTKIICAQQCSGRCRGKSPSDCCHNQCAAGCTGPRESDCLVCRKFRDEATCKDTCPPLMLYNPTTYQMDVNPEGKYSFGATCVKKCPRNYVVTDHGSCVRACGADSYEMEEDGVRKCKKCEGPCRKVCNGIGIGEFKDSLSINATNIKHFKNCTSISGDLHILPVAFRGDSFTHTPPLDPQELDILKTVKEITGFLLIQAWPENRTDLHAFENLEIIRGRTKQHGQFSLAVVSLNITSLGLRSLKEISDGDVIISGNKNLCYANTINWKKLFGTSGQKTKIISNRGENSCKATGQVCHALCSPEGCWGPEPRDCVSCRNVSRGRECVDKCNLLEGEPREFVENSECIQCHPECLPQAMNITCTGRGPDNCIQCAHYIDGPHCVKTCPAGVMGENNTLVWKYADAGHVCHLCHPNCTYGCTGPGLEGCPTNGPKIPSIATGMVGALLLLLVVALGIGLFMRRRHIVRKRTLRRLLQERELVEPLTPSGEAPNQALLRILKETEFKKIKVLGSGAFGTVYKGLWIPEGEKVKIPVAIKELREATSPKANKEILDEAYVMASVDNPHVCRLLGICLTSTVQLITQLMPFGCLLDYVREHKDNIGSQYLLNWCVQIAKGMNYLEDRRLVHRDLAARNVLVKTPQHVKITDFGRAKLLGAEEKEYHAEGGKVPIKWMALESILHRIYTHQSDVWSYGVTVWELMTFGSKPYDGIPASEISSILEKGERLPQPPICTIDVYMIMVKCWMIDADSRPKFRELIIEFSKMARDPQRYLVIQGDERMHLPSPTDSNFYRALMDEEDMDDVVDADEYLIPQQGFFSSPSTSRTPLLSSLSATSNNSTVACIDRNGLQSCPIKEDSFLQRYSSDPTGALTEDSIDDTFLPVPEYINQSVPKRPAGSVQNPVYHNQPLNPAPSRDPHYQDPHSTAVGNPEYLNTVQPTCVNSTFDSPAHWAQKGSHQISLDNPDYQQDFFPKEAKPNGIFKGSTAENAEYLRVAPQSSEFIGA
Sequence of EGFR (L858R/C797S) (P00533 25-1210 C797S/L858R): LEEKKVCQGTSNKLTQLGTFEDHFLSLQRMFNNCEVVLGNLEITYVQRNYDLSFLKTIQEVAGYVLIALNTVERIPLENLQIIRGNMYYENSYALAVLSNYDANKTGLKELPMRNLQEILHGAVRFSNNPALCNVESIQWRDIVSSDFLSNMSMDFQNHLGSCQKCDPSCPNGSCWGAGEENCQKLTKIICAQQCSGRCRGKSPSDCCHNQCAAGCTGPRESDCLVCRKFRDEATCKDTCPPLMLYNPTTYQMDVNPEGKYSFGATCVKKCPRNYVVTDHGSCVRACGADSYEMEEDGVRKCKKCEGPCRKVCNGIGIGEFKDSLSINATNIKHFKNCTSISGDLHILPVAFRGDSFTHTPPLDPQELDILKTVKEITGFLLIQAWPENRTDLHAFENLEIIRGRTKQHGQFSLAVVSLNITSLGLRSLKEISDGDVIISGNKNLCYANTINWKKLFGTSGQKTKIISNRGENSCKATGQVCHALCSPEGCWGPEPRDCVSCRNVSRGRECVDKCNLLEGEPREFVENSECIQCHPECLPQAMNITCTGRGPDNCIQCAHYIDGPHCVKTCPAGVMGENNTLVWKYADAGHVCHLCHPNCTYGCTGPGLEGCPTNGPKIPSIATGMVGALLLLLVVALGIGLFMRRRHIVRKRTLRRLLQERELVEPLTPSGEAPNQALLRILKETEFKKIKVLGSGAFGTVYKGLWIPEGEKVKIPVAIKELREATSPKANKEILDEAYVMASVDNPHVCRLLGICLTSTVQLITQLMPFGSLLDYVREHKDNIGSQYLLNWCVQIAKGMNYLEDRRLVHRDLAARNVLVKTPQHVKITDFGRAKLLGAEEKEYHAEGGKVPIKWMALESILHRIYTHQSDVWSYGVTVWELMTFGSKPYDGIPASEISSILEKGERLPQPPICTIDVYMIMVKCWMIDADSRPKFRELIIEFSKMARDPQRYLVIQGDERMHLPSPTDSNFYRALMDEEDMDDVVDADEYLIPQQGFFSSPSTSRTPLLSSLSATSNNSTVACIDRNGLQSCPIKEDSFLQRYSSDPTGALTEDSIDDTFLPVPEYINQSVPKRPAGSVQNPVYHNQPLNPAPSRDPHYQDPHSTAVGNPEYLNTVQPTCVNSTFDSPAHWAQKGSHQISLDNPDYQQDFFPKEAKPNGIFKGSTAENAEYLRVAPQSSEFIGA
Sequence of Ba/F3-FL-EGFR-L858R-T790M-C797S (P00533 whole entry T790M/C797S/L858R): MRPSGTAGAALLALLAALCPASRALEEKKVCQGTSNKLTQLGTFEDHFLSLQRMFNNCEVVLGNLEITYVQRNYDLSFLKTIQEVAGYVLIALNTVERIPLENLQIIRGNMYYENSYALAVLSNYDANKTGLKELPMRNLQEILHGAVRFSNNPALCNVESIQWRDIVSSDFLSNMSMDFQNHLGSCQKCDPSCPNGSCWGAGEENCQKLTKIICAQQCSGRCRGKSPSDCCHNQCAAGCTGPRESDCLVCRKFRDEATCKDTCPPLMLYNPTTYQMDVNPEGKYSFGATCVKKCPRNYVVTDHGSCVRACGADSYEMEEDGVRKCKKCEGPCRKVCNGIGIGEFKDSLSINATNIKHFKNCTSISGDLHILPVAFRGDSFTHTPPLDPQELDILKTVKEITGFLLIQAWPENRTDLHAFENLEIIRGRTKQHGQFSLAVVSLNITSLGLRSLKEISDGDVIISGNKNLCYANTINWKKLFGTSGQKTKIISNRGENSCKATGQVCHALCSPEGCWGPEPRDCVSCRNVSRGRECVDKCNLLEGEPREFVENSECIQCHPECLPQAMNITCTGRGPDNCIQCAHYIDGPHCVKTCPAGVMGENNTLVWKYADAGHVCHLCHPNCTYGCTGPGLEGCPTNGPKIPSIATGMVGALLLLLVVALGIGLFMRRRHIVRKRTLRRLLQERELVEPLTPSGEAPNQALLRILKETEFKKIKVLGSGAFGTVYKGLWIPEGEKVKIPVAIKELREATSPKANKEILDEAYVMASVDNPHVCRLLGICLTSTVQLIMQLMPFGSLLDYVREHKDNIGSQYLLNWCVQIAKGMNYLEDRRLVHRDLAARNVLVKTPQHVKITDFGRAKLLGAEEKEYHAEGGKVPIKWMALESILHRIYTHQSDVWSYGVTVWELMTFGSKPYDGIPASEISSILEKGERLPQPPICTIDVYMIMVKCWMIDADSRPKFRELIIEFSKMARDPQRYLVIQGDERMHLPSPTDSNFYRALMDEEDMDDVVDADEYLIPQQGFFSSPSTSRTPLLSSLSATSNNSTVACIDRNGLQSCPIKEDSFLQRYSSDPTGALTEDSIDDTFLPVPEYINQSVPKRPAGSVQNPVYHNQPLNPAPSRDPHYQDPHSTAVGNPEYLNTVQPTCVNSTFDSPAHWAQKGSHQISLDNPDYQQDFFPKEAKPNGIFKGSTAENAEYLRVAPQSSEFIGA
Sequence of EGFR (wild-type) (P00533 25-1210): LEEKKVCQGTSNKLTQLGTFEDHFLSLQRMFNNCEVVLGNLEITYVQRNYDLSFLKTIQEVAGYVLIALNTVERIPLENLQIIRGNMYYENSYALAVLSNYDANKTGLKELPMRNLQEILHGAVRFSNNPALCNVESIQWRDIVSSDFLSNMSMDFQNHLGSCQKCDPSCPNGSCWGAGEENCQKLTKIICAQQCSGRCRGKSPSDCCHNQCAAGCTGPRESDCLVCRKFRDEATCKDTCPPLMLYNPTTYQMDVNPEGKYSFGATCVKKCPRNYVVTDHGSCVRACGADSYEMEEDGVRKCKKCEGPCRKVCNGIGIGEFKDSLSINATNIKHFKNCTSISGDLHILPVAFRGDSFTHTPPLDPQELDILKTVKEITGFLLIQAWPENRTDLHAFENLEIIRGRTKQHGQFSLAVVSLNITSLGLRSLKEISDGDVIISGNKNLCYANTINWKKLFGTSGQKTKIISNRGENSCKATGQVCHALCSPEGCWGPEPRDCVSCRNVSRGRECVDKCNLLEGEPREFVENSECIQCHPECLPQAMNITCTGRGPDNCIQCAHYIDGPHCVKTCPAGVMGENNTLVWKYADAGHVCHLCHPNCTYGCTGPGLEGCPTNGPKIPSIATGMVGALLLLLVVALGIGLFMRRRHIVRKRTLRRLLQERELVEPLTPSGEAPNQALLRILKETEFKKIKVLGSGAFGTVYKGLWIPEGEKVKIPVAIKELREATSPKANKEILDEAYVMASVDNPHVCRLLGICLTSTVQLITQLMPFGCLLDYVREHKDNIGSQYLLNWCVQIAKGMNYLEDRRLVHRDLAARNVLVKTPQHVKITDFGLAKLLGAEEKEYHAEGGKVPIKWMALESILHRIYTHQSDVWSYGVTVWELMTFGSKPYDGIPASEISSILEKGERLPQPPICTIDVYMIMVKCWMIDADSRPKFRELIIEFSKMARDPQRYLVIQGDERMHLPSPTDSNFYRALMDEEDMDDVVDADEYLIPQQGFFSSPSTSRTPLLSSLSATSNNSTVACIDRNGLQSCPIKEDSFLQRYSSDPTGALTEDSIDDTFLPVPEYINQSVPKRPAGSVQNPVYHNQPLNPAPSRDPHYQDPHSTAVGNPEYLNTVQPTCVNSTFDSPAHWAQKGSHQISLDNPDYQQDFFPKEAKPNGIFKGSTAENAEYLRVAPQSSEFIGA

Compound	IC50 (EGFR (wild-type)) [nM]	IC50 (EGFR (L858R)) [nM]	IC50 (EGFR (L858R/C797S)) [nM]	IC50 (EGFR (L858R/T790M/C797S)) [nM]	GI50 (Ba/F3-FL-EGFR) [nM]	GI50 (Ba/F3-FL-EGFR-L858R) [nM]	GI50 [1] [nM]	GI50 [2] [nM]	IC50 [3] [nM]
COc1cccc(-c2nccc(Nc3cc4c(C(C)C)ccc(N5CC(CS(C)(=O)=O)C5)c4cn3)n2)n1 [Compound H2]	> 100	> 100	> 100	71.6	–	–	–	–	–
CC(C)n1c(=O)cc(N2CC(CS(C)(=O)=O)C2)c2cnc(Nc3ccnc(-c4cnn(S(=O)(=O)C5CC5)c4)n3)cc21 [Compound H5]	10.2	4.6	1.9	0.43	–	–	–	–	–
CC(C)c1ccc(N2CC(CS(C)(=O)=O)C2)c2cnc(Nc3ccnc(-c4cnn(S(=O)(=O)C(F)(F)F)c4)n3)cc12 [Compound H8]	> 100	–	6.4	3.5	–	–	–	–	–
CC(C)c1ccc(N2CC(CS(C)(=O)=O)C2)c2cnc(Nc3ccnc(-c4cnn(S(=O)(=O)C5CCCCC5)c4)n3)cc12 [Compound H9]	> 100	–	12	6.3	–	–	–	–	–
CC(C)c1ccc(N2CC3(CC(S(C)(=O)=O)C3)C2)c2cnc(Nc3ccnc(N4CCC(O)C(F)C4)n3)cc12 (centres unmarked) [Compound P2]	> 100	43	> 100	6.7	–	–	–	–	–
CC(C)c1cc(C#N)c(N2CC(CS(C)(=O)=O)C2)c2cnc(Nc3ccnc(N4CCC(O)C(F)C4)n3)cc12 (centres unmarked) [Compound P16]	> 100	–	24.1	0.28	–	–	–	–	–
CC(C)c1ccc(N2CC(c3cscn3)C2)c2cnc(Nc3ccnc(N4CCC(O)C(F)C4)n3)cc12 (centres unmarked) [Compound P18]	> 100	–	> 100	9.9	–	–	–	–	–
COC1CCN(c2nccc(Nc3cc4c(cn3)c(N3CC(CS(C)(=O)=O)C3)cc(=O)n4C(C)C)n2)CC1F (centres unmarked) [Compound P24]	41.2	–	10.4	0.13	3440	128	63	57	283
COC1CCN(c2nccc(Nc3cc4c(C(C)C)ccc(N5CC(NS(=O)(=O)C6COC6)C5)c4cn3)n2)CC1F (centres unmarked) [Compound P37]	–	–	–	–	1140	83	33	34	339
COC1CCN(c2nccc(Nc3cc4c(C(C)C)ccc(N5C[C@H](NS(C)(=O)=O)[C@H]5C)c4cn3)n2)CC1F (some centres unmarked) [Compound P38]	–	–	–	–	540	15	7	5.4	76
CC(C)c1ccc(N2CC(N(C)S(C)(=O)=O)C2)c2cnc(Nc3ccnc(N4CC[C@H](O)[C@H](F)C4)n3)cc12 [Compound P39b]	–	–	–	–	760	24	16	14	60
CO[C@@H]1CCN(c2nccc(Nc3cc4c(C(C)C)ccc(N5C[C@H](N(C)S(C)(=O)=O)[C@H]5C)c4cn3)n2)C[C@@H]1F [Compound P40a]	–	–	–	–	421	20	5.8	2.5	53
CO[C@H]1CCN(c2nccc(Nc3cc4c(C(C)C)ccc(N5C[C@H](N(C)S(C)(=O)=O)[C@H]5C)c4cn3)n2)C[C@H]1F [Compound P40b]	–	–	–	–	465	25	5.9	4.8	81
[2H]C([2H])([2H])N([C@H]1CN(c2ccc(C(C)C)c3cc(Nc4ccnc(N5CCC(OC)C(F)C5)n4)ncc23)[C@@H]1C)S(C)(=O)=O (some centres unmarked) [Compound P42]	–	–	–	–	761	16	6.6	5.8	90
CCS(=O)(=O)N(C)[C@H]1CN(c2ccc(C(C)C)c3cc(Nc4ccnc(N5CCC(OC)C(F)C5)n4)ncc23)[C@@H]1C (some centres unmarked) [Compound P43]	–	–	–	–	593	36	9.8	5.6	142
CCS(=O)(=O)N[C@H]1CN(c2ccc(C(C)C)c3cc(Nc4ccnc(N5CCC(OC)C(F)C5)n4)ncc23)[C@@H]1C (some centres unmarked) [Compound P44]	–	–	–	–	775	21	10	6.7	110
CCS(=O)(=O)NC1CN(c2ccc(C(C)C)c3cc(Nc4ccnc(N5CCC(O)C(F)C5)n4)ncc23)C1 (centres unmarked) [Compound P47]	–	–	–	–	1610	113	38	42	179
CCCS(=O)(=O)NC1CN(c2ccc(C(C)C)c3cc(Nc4ccnc(N5CCC(O)C(F)C5)n4)ncc23)C1 (centres unmarked) [Compound P48]	–	–	–	–	1170	76	29	31	144
COCCS(=O)(=O)N(C)C1CN(c2ccc(C(C)C)c3cc(Nc4ccnc(N5CCC(OC)C(F)C5)n4)ncc23)C1 (centres unmarked) [Compound P49]	–	–	–	–	1070	121	36	38	316
COC1CCN(c2nccc(Nc3cc4c(C(C)C)ccc(N5CC(N(C)S(=O)(=O)C(F)(F)F)C5)c4cn3)n2)CC1F (centres unmarked) [Compound P50]	–	–	–	–	6620	1890	542	720	3510
